“And” between values parts separate entries of the source, which are not always exact repeats. Identical values can stand only once. Like-named read-outs stand apart in the source and are kept apart here.
Legend:
[1] = system: EBOv (Makon); settings: Hela; EBOV (Makona); 48 hours
[2] = system: HT1080 cells; assay: MTT proliferation assay, HT1080; type: cell-based, human; settings: HT1080, 72 hr
[3] = system: DU145 xenograft; assay: DU145 prostate cancer xenograft model; settings: SBT-100 5 mg/kg bw i.p. BID×14
[4] = system: EBOv (Makon); settings: HFF; EBOV (Makona); 48 hours
[5] = system: DU145 cells; assay: MTT proliferation assay, DU145; type: cell-based, human; settings: 50 μg, single experiments, listed as Anti-STAT3 Bacterial VHH13
[6] = system: Zika/DAKAR D41525 Senegal strain
[7] = system: STAT3; assay: STAT3 reporter GloResponse SIE-luc2P/HEK293 assay, IL-6 induction; type: cell-based; settings: for decrease in RLU: highest concentration (55.8 μg/mL);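 on all read-outs here: SIE-luc2P/HEK293 reporter cells stimulated with IL-6 at 40 ng/mL (EC80) after pretreatment, luciferase luminescence (RLU) read the following day, triplicate wells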
[8] = system: SIE-luc2P/HEK293 cells; assay: BCA protein concentration of reporter cells; type: cell-based; settings: highest concentration (55.8 μg/mL)
[9] = system: PANC-1 xenograft; settings: for Tumor Measurements (mm^3), group Mean / Individual Tumor Measurements (mm^3): Group 2: 500 μg/kg bw IP QD×14; for Individual Tumor Measurements (mm^3): single animals, listed as anti-STAT3 bacterial VHH13
[10] = system: MCF-7 xenograft; settings: for Caliper Measurement W / Caliper Measurement L / Tumor Volume TV: individual animals; for Caliper Measurement W / Caliper Measurement L / Tumor Volume TV / Tumor Volume TV, group Mean: VHH13 1 mg/kg ip tid × 14
[11] = Group 2, 1 mg/kg ip tid × 14 first Day 2 doses

## anti-STAT3 VHH13: anti-STAT3 single-domain antibody, SEQ ID NO:3; bacterially produced, referred to as SBT-100
[1]
  EC50: 19.02 ug/m
  EC90: 58.72 µg/mL
[2]
  IC50: IC50 = 33 μg/ml
[3]
  % treatment/control: 74.8%
  mean tumor size (±S.E.) at termination (day 28): 601.83±131.51
  mean tumor size (±SE) at last day of dosing (Day 14): 364.14±51.64
[3]; control 14.57 days
  tumor doubling time: 18.19 days
[3]; p=0.29
  mean tumor growth inhibition at the end of the study: 26.6%
[4]
  EC50: 38.36 ug/m
  EC90: 66.43 µg/mL
[5]
  Absorbance: 0.68 and 1.2
[6]
  EC50: 11.04 ug/m
  EC90: 48.11 µg/mL
[7]; 24 and 48 hours treatment, VHH13 and VHH69 at highest concentration, VHH14 at both concentrations
  effect on IL-6 induction of the STAT3 reporter: Inhibition of IL-6
[7]; 24 hours treatment prior to IL-6 induction
  decrease in RLU: greater than 10 fold
[7]; 48 hours treatment prior to IL-6 induction
  decrease in RLU: greater than 1,000 fold
[8]
  decrease in protein: approximately 2 fold
[9]; 500 μg/kg bw IP QD×14
  growth inhibition: no significant growth inhibition
  mean tumor size (±SE) on day 14 of dosing: 318.74 ± 29.76
[9]; 500 μg/kg bw IP QD×14, control […] days
  tumor doubling time: 23.02 days
[9]; 2/19
  Tumor Measurements (mm^3), group Mean: 110.58 mm^3
  Individual Tumor Measurements (mm^3): 96.31 mm^3 and 89.24 mm^3 and 80.62 mm^3 and 108.03 mm^3 and 77.66 mm^3 and 129.68 mm^3 and 108.99 mm^3 and 123.27 mm^3 and 144.53 mm^3 and 120.96 mm^3 and 112.69 mm^3 and 134.95 mm^3
[9]; 2/24
  Tumor Measurements (mm^3), group Mean: 149.71 mm^3
  Individual Tumor Measurements (mm^3): 193.71 mm^3 and 90.03 mm^3 and 148.97 mm^3 and 144.14 mm^3 and 116.21 mm^3 and 143.20 mm^3 and 182.30 mm^3 and 171.03 mm^3 and 136.03 mm^3 and 136.48 mm^3 and 144.76 mm^3 and 189.64 mm^3
[9]; 2/27
  Tumor Measurements (mm^3), group Mean: 222.47 mm^3
  Individual Tumor Measurements (mm^3): 275.06 mm^3 and 112.43 mm^3 and 196.38 mm^3 and 234.46 mm^3 and 313.19 mm^3 and 290.67 mm^3 and 239.00 mm^3 and 223.34 mm^3 and 198.47 mm^3 and 226.43 mm^3 and 167.12 mm^3 and 193.14 mm^3
[9]; 3/2
  Tumor Measurements (mm^3), group Mean: 242.11 mm^3
  Individual Tumor Measurements (mm^3): 317.53 mm^3 and 125.51 mm^3 and 187.24 mm^3 and 240.39 mm^3 and 290.38 mm^3 and 224.92 mm^3 and 254.64 mm^3 and 226.88 mm^3 and 226.04 mm^3 and 338.06 mm^3 and 225.70 mm^3 and 248.01 mm^3
[9]; 3/6
  Tumor Measurements (mm^3), group Mean: 318.74 mm^3
  Individual Tumor Measurements (mm^3): 395.37 mm^3 and 189.63 mm^3 and 299.84 mm^3 and 288.75 mm^3 and 411.66 mm^3 and 261.44 mm^3 and 342.19 mm^3 and 248.69 mm^3 and 247.97 mm^3 and 564.71 mm^3 and 223.06 mm^3 and 351.63 mm^3
[9]; 3/10
  Tumor Measurements (mm^3), group Mean: 408.74 mm^3
  Individual Tumor Measurements (mm^3): 540.66 mm^3 and 235.08 mm^3 and 530.46 mm^3 and 421.61 mm^3 and 197.67 mm^3 and 343.04 mm^3 and 464.00 mm^3 and 324.30 mm^3 and 273.58 mm^3 and 883.81 mm^3 and 326.19 mm^3 and 364.44 mm^3
[9]; SBT-100 5 mg/kg bw i.p. BID×14
  % treatment/control: 52.79%
  mean tumor size (±S.E.) at termination (day 28): 203.02±30.34
  mean tumor size (±SE) at last day of dosing (Day 14): 159.03±28.01
[9]; SBT-100 5 mg/kg bw i.p. BID×14, control 18.51 days
  tumor doubling time: 35.70 days
[9]; SBT-100 5 mg/kg bw i.p. BID×14, p=0.35
  mean tumor growth inhibition at the end of the study: 41.78%
[10]; 1 mg/kg ip tid x 14, control group 25 days
  time for the group to reach a tumor volume of 1000 mm^3: 36 days
[10]; Day 1
  Caliper Measurement W: 6 mm
[10]; Day 1, 1 mg/kg
  Caliper Measurement L: 6 mm (2×) and 7 mm (2×)
[10]; Day 4 (Jul. 30, 2015), 1 mg/kg
  Tumor Volume TV: 196 mm^3 and 126 mm^3 and 144 mm^3
[10]; Day 4, 1 mg/kg
  Caliper Measurement L: 8 mm (2×) and 7 mm
  Caliper Measurement W: 7 mm and 6 mm (2×)
[10]; Day 8, 1 mg/kg
  Caliper Measurement L: 8 mm
  Caliper Measurement W: 7 mm
[10]; Day 11, 1 mg/kg
  Caliper Measurement L: 8 mm
  Caliper Measurement W: 9 mm and 7 mm
[10]; Day 15
  Tumor Volume TV, group Mean: 346.5 mm^3
[10]; Day 15, 1 mg/kg
  Caliper Measurement L: 9 mm
  Caliper Measurement W: 9 mm
  Tumor Volume TV: 405 mm^3 and 288 mm^3
[10]; Day 18, 1 mg/kg
  Caliper Measurement L: 9 mm
  Caliper Measurement W: 9 mm
[10]; Day 22, 1 mg/kg
  Caliper Measurement L: 11 mm
  Caliper Measurement W: 9 mm
[10]; Day 25, 1 mg/kg
  Caliper Measurement L: 12 mm
  Caliper Measurement W: 12 mm and 9 mm
[10]; Day 29, 1 mg/kg
  Caliper Measurement L: 13 mm
  Caliper Measurement W: 13 mm
[10]; Day 32
  Tumor Volume TV, group Mean: 500 mm^3
  Tumor Volume TV: 500 mm^3
[10]; Day 36
  Caliper Measurement L: 12 mm
  Caliper Measurement W: 12 mm
[10]; Day 39
  Caliper Measurement L: 13 mm
  Caliper Measurement W: 13 mm
[10]; [11]
  % TGD: 42%
  T-C: 9.7

Source: patent US11370847B2, “Single domain antibodies directed against intracellular antigens” (Singh Biotechnology, LLC, priority 2014, dated 2022)
